Patent US20250320205A1, “STAT6 DEGRADERS” (Gilead Sciences, Inc., priority 2024, published 2025)

What was measured:
STAT6 = molecular target: T1, STAT6 (Homo sapiens, UniProt P42226); assay: STAT6 Degrader Assay (HiBiT based, HeLa LgBiT clone 4.14 cells); format: cell-based; conditions: geometric mean across assay runs and compound batches; DC50 provided for test compounds with >80% Emax; read-out: STAT6 degradation DC50
T1 construct: These cells express endogenous STAT6; host or cells: HeLa LgBiT clone 4.14 (CRISPR knock-in of HiBiT into the endogenous STAT6 gene)
T1 sequence (P42226 1-847): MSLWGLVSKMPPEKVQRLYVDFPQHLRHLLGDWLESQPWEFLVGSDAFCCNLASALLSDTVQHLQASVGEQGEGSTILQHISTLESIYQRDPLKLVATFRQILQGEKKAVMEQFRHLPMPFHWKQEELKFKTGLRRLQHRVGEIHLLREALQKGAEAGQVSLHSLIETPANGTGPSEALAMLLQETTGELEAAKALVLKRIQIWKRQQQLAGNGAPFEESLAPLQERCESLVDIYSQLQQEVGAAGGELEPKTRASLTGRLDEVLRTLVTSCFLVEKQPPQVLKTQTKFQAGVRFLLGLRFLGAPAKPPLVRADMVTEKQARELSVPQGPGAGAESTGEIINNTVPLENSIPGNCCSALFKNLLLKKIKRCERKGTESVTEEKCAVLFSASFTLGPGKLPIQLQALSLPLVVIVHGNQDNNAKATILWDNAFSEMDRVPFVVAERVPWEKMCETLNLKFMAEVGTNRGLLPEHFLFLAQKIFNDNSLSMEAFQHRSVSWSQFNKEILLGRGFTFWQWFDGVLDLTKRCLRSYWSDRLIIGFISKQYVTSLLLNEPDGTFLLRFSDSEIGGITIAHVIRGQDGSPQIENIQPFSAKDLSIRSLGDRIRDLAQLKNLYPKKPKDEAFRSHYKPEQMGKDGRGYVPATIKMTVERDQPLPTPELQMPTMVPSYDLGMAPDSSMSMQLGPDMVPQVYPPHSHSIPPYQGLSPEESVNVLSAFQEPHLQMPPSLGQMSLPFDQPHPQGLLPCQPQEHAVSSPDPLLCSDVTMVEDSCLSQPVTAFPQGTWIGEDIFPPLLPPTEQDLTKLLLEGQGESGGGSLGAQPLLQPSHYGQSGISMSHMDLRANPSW
Outline: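 DC50 (nM) comes from NanoBiT luminescence of HiBiT-knock-in STAT6 in HeLa LgBiT clone 4.14 cells, treated 4-24 h at 37° C. Luminescence reflects non-degraded STAT6, with 50 μM terfenadine wells taken as full degradation.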

[1] = test system: Eotaxin-3 (CCL26) release; assay: Human Whole Blood Eotaxin-3 Assay (IL-4 stimulated); format: cell-based; conditions: Homo sapiens; geometric mean across assay runs and compound batches; EC50 provided for test compounds with >80% Emax
Outline: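 Lithium-heparin human whole blood preincubated 2 h at 37 °C with compounds (4-fold dilutions, triplicate, 0.5% DMSO final). Then stimulated with 400 pM final recombinant human IL-4 for 48 h. Eotaxin-3 in supernatant quantified by MSD immunoassay.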

| Structure (SMILES) | DC50 (STAT6) [nM] | EC50 [1] [nM] |
| --- | --- | --- |
| CNc1ccn(-c2ccnc3c2cc([C@H](C)N2CC=C(c4c(C)cc(C(=O)N5CCC(CN6CCN(c7ccc(NC8CCC(=O)NC8=O)cc7F)C[C@@H]6C)CC5)cc4F)CC2)n3C)c(=O)c1 (stereo partly drawn) [Example 2g97, 3-((3-fluoro-4-((S)-4-((1-(3-fluoro-5-methyl-4-(1-((S)-1-(1-methyl-4-(4-(methyl-amino)-2-oxopyridin-1(2H)-yl)-1H-pyrrolo[2,3-b]pyridin-2-yl)ethyl)-1,2,3,6-tetrahydro-pyridin-4-yl)benzoyl)piperi-din-4-yl)methyl)-3-methyl-piperazin-1-yl)phenyl)amino)-piperidine-2,6-dione] | 20.8 | 36.7 |
| C[C@@H](c1cc2c(-n3ccc4c(c3=O)CCN4)ccnc2n1C)N1CCC(c2ccc(C(=O)N3CCC(CN4CCN(c5ccc(N[C@@H]6CCC(=O)NC6=O)cc5F)CC4)CC3)cc2)CC1 (single isomer, unassigned) [Example 2c35] | 7.5 | 18.7 |
| Cn1c(CN2CCC(c3c(F)cc(C(=O)N4CCC(CN5CCN(c6ccc(NC7CCC(=O)NC7=O)cc6F)CC5)CC4)cc3F)CC2)cc2c(-n3ccc4c(c3=O)CCN4)ccnc21 (stereo not shown) [Example 2g35, 3-((4-(4-((1-(3,5-difluoro-4-(1-((1-methyl-4-(4-oxo-1,2,3,4-tetrahydro-5H-pyrrolo [3,2-c]pyridin-5-yl)-1H-pyrrolo[2,3-b]pyridin-2-yl)-methyl)piperidin-4-yl)benzo-yl)piperidin-4-yl)methyl)-piperazin-1-yl)-3-fluorophen-yl)-amino)piperidine-2,6-dione] | 16 | 73.2 |
| CNc1ccn(-c2ccnc3c2cc([C@H](C)N2CC=C(c4c(C)cc(C(=O)N5CCC(CN6CCN(Cc7ccc(NC8CCC(=O)NC8=O)c(F)c7)CC6)CC5)cc4F)CC2)n3C)c(=O)c1 (stereo partly drawn) [Example 2g10, 3-((2-fluoro-4-((4-((1-(3-fluoro-5-methyl-4-(1-((S)-1-(1-methyl-4-(4-(methyl-amino)-2-oxopyridin-1(2H)-yl)-1H-pyrrolo[2,3-b]pyridin-2-yl)ethyl)-1,2,3,6-tetrahydro-pyridin-4-yl)benzoyl)-piper-idin-4-yl)methyl)piperazin-1-yl)methyl)phenyl)amino)-piperidine-2,6-dione] | 11.4 | 19.2 |
| CNc1ccn(-c2ccnc3c2cc([C@H](C)N2CC=C(c4c(C)cc(C(=O)N5CCC(CN6CCN(c7ccc(N[C@H]8CCC(=O)NC8=O)c(OC)c7)CC6)CC5)cc4F)CC2)n3C)c(=O)c1 (single isomer, unassigned) [Example 2g126] | 4.3 | 21.2 |
| CNc1cc(=O)n(-c2ccnc3c2cc([C@H](C)N2CC=C(c4c(F)cc(C(=O)N5CCC(CN6CCN(c7ccc(N[C@H]8CCC(=O)NC8=O)cc7F)CC6)CC5)cc4F)CC2)n3C)cc1F (single isomer, unassigned) [Example 2g120] | 9.4 | 36.5 |
| CNc1cc(=O)n(-c2ccnc3c2cc([C@H](C)N2CC=C(c4c(C)cc(C(=O)N5CCn6nc(CC7(O)CCN(c8ccc(NC9CCC(=O)NC9=O)c(OC)c8)CC7)cc6C5)cc4F)CC2)n3C)cc1F (stereo partly drawn) [Example 2g7, 3-((4-(4-((5-(3-fluoro-4-(1-((S)-1-(4-(5-fluoro-4-(meth-ylamino)-2-oxopyridin-1(2H)-yl)-1-methyl-1H-pyrrolo[2,3-b]pyridin-2-yl)ethyl)-1,2,3,6-tetrahydropyridin-4-yl)-5-methylbenzoyl)-4,5,6,7-tetra-hydropyrazolo[1,5-a]pyrazin-2-yl)methyl)-4-hydroxy-piperidin-1-yl)-2-methoxy-phenyl)amino)-piperidine-2,6-dione] | 10.3 | 15.4 |
| CNc1cc(=O)n(-c2ccnc3c2cc([C@H](C)N2CC=C(c4c(C)cc(C(=O)N5CCn6nc(CN7CCC(c8ccc(N[C@H]9CCC(=O)NC9=O)c(OC)c8)CC7)cc6C5)cc4F)CC2)n3C)cc1F (single isomer, unassigned) [Example 2g11] | 1 | 1.7 |
| CNc1ccn(-c2ccnc3c2cc([C@H](C)N2CC=C(c4c(C)cc(C(=O)N5CCC(CN6CCN(c7ccc(N[C@@H]8CCC(=O)NC8=O)c(OC)c7)CC6)CC5)cc4F)CC2)n3C)c(=O)c1 (single isomer, unassigned) [Example 2g127] | 20.8 | 9.3 |
| CNc1ccn(-c2ccnc3c2cc([C@H](C)N2CC=C(c4c(C)cc(C(=O)N5CCn6nc(CN7CCC(c8ccc(NC9CCC(=O)NC9=O)c(OC)c8)CC7)c(Cl)c6C5)cc4F)CC2)n3C)c(=O)c1 (stereo partly drawn) [Example 2g52, 3-((4-(1-((3-chloro-5-(3-fluoro-5-methyl-4-(1-((S)-1-(1-methyl-4-(4-(methyl-amino)-2-oxopyridin-1(2H)-yl)-1H-pyrrolo[2,3-b]pyridin-2-yl)ethyl)-1,2,3,6-tetrahydro-pyridin-4-yl)benzoyl)-4,5,6,7-tetrahydropyrazolo[1,5-a]pyrazin-2-yl)methyl)piperi-din-4-yl)-2-methoxyphenyl)-amino)piperidine-2,6-dione] | 0.8 | 0.3 |

The next lines start with the values.

| DC50 (STAT6) [nM] | EC50 [1] [nM] | Structure (SMILES) |
| --- | --- | --- |
| 10.6 | 56.9 | CNc1cc(=O)n(-c2ccnc3c2cc(CN2CCC(c4c(F)cc(C(=O)N5CCC(CN6CCN(c7ccc(NC8CCC(=O)NC8=O)cc7F)CC6)CC5)cc4F)CC2)n3C)cc1F (stereo not shown) [Example 2g32, 3-((4-(4-((1-(3,5-difluoro-4-(1-((4-(5-fluoro-4-(methyl-amino)-2-oxopyridin-1(2H)-yl)-1-methyl-1H-pyrrolo[2,3-b]pyridin-2-yl)methyl)piperi-din-4-yl)benzoyl)piperidin-4-yl)methyl)piperazin-1-yl)-3-fluorophenyl)amino)piperi-dine-2,6-dione] |
| 0.5 | 0.7 | CNc1ccn(-c2ccnc3c2cc([C@H](C)N2CC=C(c4c(F)cc(C(=O)N5CCn6nc(CN7CCC(c8ccc(NC9CCC(=O)NC9=O)cc8F)CC7)cc6C5)cc4F)CC2)n3C)c(=O)c1 (stereo partly drawn) [Example 2g108, 3-((4-(1-((5-(3,5-difluoro-4-(1-((S)-1-(1-methyl-4-(4-(methylamino)-2-oxopyridin-1(2H)-yl)-1H-pyrrolo[2,3-b]pyridin-2-yl)ethyl)-1,2,3,6-tetrahydropyridin-4-yl)benzo-yl)-4,5,6,7-tetrahydropyrazolo [1,5-a]pyrazin-2-yl)methyl)-piperidin-4-yl)-3-fluorophen-yl)amino)piperidine-2,6-dione] |
| 1 | 0.4 | CNc1ccn(-c2ccnc3c2cc(CN2CCC(c4c(F)cc(C(=O)N5CCn6nc(CN7CCC(c8ccc(NC9CCC(=O)NC9=O)cc8F)CC7)cc6C5)cc4F)CC2)n3C)c(=O)c1 (single isomer, unassigned) [Example 2g101] |
| 1.5 | 0.8 | CNc1ccn(-c2ccnc3c2cc(CN2CCC(c4c(F)cc(C(=O)N5CCn6nc(CN7CCC(c8ccc(N[C@@H]9CCC(=O)NC9=O)cc8F)CC7)cc6C5)cc4F)CC2)n3C)c(=O)c1 (single isomer, unassigned) [Example 2g102] |
